{"source": "paper PMC7618403", "about": "(Science (New York, N.Y.), 2026)", "key": {"[1]": {"target": "T1, XRCC3 complex (XRCC3-RAD51C-RAD51D-XRCC2), XRCC2 site (Homo sapiens, UniProt O43543)", "T1 construct": "heterotetramer co-expressed in baculovirus-infected insect cells, purified; caps a RAD51-ssDNA filament; with DNA repair protein XRCC3", "experiment": "cryo-EM structure, […] A", "type": "binding", "settings": "XRCC2 nucleotide site; ATP with Mg2+ and Ca2+; capped RAD51-ssDNA filament"}, "[2]": {"target": "T2, (Homo sapiens, UniProt O15315+O43502)", "T2 construct": "gene RAD51B; heterotetramer; DNA repair protein XRCC2", "experiment": "ATP hydrolysis assay", "type": "biochemical", "settings": "coupled RAD51B and RAD51C ATPase sites"}, "[3]": {"target": "T3, XRCC3 complex (XRCC3-RAD51C-RAD51D-XRCC2), XRCC3 site (Homo sapiens, UniProt O43542)", "T3 construct": "heterotetramer co-expressed in baculovirus-infected insect cells, purified; in the structure it caps a RAD51-ssDNA filament; DNA repair protein XRCC2", "experiment": "cryo-EM structure, […] A", "type": "binding", "settings": "XRCC3 active site; ATP with Mg2+ and Ca2+; capped RAD51-ssDNA filament"}, "[4]": {"target": "T4, XRCC3 complex (XRCC3-RAD51C-RAD51D-XRCC2), RAD51D site (Homo sapiens, UniProt O75771)", "T4 construct": "heterotetramer co-expressed in baculovirus-infected insect cells, purified; caps a RAD51-ssDNA filament; with DNA repair protein XRCC3; DNA repair protein XRCC2", "experiment": "cryo-EM structure, […] A", "type": "binding", "settings": "RAD51D nucleotide site; ATP with Mg2+ and Ca2+; capped RAD51-ssDNA filament"}, "[5]": {"target": "T5, XRCC3 complex (XRCC3-RAD51C-RAD51D-XRCC2), XRCC3 site (Homo sapiens, UniProt O43542, E143A)", "T5 construct": "heterotetramer co-expressed in baculovirus-infected insect cells, purified; DNA repair protein XRCC2", "T5 sequence (O43542 whole entry E143A, one chain of several)": "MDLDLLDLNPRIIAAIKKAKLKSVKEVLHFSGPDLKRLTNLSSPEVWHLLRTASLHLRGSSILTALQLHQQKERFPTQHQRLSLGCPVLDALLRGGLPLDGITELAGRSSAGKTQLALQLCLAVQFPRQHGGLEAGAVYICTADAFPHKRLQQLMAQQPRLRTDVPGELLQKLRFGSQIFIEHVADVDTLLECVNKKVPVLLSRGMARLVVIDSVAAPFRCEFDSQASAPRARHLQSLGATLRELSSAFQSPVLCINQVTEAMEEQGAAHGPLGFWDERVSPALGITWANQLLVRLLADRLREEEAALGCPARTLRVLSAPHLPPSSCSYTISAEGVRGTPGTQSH", "experiment": "ATP hydrolysis assay", "type": "biochemical", "settings": "catalytic glutamate mutant"}, "[6]": {"target": "T6, RAD51B complex (RAD51B-RAD51C-RAD51D-XRCC2; BCDX2) (Homo sapiens, UniProt O15315+O43502, O43502:E161A)", "T6 construct": "heterotetramer; DNA repair protein XRCC2", "T6 sequence (O15315 whole entry, one chain of several)": "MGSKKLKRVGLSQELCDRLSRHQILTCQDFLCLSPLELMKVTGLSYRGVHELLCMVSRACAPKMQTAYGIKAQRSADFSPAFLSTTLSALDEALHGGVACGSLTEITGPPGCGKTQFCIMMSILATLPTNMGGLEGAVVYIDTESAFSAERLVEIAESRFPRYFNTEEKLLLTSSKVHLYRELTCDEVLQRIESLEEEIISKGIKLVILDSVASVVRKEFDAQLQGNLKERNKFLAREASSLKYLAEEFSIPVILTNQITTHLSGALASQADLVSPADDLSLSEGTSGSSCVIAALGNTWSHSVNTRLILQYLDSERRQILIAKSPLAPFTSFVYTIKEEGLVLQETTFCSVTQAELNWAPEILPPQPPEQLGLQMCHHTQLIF", "T6 sequence (O43502 whole entry E161A, one chain of several)": "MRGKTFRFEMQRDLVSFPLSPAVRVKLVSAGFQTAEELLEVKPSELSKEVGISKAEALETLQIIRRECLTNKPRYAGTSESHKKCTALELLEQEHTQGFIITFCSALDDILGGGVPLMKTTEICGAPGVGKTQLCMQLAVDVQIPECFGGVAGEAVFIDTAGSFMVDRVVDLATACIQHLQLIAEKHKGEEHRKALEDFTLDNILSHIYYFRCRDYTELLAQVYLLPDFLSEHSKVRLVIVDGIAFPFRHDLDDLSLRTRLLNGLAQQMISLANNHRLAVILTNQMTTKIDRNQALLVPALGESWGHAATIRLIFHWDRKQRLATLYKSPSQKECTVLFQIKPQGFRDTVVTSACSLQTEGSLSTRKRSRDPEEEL", "experiment": "ATP hydrolysis assay", "type": "biochemical", "settings": "catalytic glutamate mutant"}, "[7]": {"target": "T3, XRCC3 complex (XRCC3-RAD51C-RAD51D-XRCC2), XRCC3 site", "experiment": "ATP hydrolysis assay", "type": "biochemical", "settings": "catalytic glutamate mutant"}, "[8]": {"target": "T7, RAD51 (filament on ssDNA capped by XRCC3 complex) (Homo sapiens, UniProt Q06609)", "T7 construct": "with DNA repair protein XRCC3; DNA repair protein XRCC2", "experiment": "cryo-EM structure, […] A", "type": "binding", "settings": "RAD51 active sites, ATP with Mg2+ and Ca2+"}, "RAD51 [9]": {"target": "T8, RAD51 (human, UniProt Q06609 1-339)", "T8 chain": "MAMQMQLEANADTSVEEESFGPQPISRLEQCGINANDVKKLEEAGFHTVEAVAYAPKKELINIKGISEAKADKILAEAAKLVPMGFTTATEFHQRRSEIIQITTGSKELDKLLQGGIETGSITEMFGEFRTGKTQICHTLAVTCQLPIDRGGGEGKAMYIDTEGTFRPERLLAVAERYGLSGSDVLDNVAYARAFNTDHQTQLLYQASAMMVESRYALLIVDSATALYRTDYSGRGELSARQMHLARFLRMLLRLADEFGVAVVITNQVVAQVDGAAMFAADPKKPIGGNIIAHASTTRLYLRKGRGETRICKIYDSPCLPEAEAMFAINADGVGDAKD", "experiment": "MST"}, "RAD51 [10]": {"target": "T8, RAD51", "experiment": "MST; 1 mM ATP and CaCl2"}}, "data": [{"molecule": "Nc1ncnc2c1ncn2[C@@H]1O[C@H](COP(=O)(O)OP(=O)(O)OP(=O)(O)O)[C@@H](O)[C@H]1O", "note": "[ATP]", "values": [{"measurement": "cryo-EM structure, 2.7 A", "setting": "[1]", "value": "RAD51D and XRCC2 were both bound to ATP"}, {"measurement": "ATP hydrolysis assay", "setting": "[2]", "value": "XRCC3 complex displayed minimal ATPase activity relative to the RAD51B complex"}, {"measurement": "cryo-EM structure, 2.7 A", "setting": "[3]", "value": "XRCC3 and RAD51 protomers were also bound to ATP"}, {"measurement": "cryo-EM structure, 2.7 A", "setting": "[4]", "value": "RAD51D and XRCC2 were both bound to ATP"}, {"measurement": "ATP hydrolysis assay", "setting": "[5]", "value": "residual activity was eliminated by an XRCC3 catalytic glutamate mutant (XRCC3^E143A)"}, {"measurement": "ATP hydrolysis assay", "setting": "[6]", "value": "the same mutation abolishing the ATPase activity in the RAD51B complex"}, {"measurement": "ATP hydrolysis assay", "setting": "[7]", "value": "mutation of the catalytic glutamate in RAD51C (RAD51C^E161A) had no effect on ATPase activity"}, {"measurement": "cryo-EM structure, 2.7 A", "setting": "[8]", "value": "XRCC3 and RAD51 protomers were also bound to ATP"}]}, {"molecule": "XRCC3-RAD51C-RAD51D-XRCC2 complex (complex) chain 1: MDLDLLDLNPRIIAAIKKAKLKSVKEVLHFSGPDLKRLTNLSSPEVWHLLRTASLHLRGSSILTALQLHQQKERFPTQHQRLSLGCPVLDALLRGGLPLDGITELAGRSSAGKTQLALQLCLAVQFPRQHGGLEAGAVYICTEDAFPHKRLQQLMAQQPRLRTDVPGELLQKLRFGSQIFIEHVADVDTLLECVNKKVPVLLSRGMARLVVIDSVAAPFRCEFDSQASAPRARHLQSLGATLRELSSAFQSPVLCINQVTEAMEEQGAAHGPLGFWDERVSPALGITWANQLLVRLLADRLREEEAALGCPARTLRVLSAPHLPPSSCSYTISAEGVRGTPGTQSH chain 2: MRGKTFRFEMQRDLVSFPLSPAVRVKLVSAGFQTAEELLEVKPSELSKEVGISKAEALETLQIIRRECLTNKPRYAGTSESHKKCTALELLEQEHTQGFIITFCSALDDILGGGVPLMKTTEICGAPGVGKTQLCMQLAVDVQIPECFGGVAGEAVFIDTEGSFMVDRVVDLATACIQHLQLIAEKHKGEEHRKALEDFTLDNILSHIYYFRCRDYTELLAQVYLLPDFLSEHSKVRLVIVDGIAFPFRHDLDDLSLRTRLLNGLAQQMISLANNHRLAVILTNQMTTKIDRNQALLVPALGESWGHAATIRLIFHWDRKQRLATLYKSPSQKECTVLFQIKPQGFRDTVVTSACSLQTEGSLSTRKRSRDPEEEL chain 3: MGVLRVGLCPGLTEEMIQLLRSHRIKTVVDLVSADLEEVAQKCGLSYKALVALRRVLLAQFSAFPVNGADLYEELKTSTAILSTGIGSLDKLLDAGLYTGEVTEIVGGPGSGKTQVCLCMAANVAHGLQQNVLYVDSNGGLTASRLLQLLQAKTQDEEEQAEALRRIQVVHAFDIFQMLDVLQELRGTVAQQVTGSSGTVKVVVVDSVTAVVSPLLGGQQREGLALMMQLARELKTLARDLGMAVVVTNHITRDRDSGRLKPALGRSWSFVPSTRILLDTIEGAGASGGRRMACLAKSSRQPTGFQEMVDIGTWGTSEQSATLQGDQT chain 4: MCSAFHRAESGTELLARLEGRSSLKEIEPNLFADEDSPVHGDILEFHGPEGTGKTEMLYHLTARCILPKSEGGLEVEVLFIDTDYHFDMLRLVTILEHRLSQSSEEIIKYCLGRFFLVYCSSSTHLLLTLYSLESMFCSHPSLCLLILDSLSAFYWIDRVNGGESVNLQESTLRKCSQCLEKLVNDYRLVLFATTQTIMQKASSSSEEPSHASRRLCDVDIDYRPYLCKAWQQLVKHRMFFSKQDDSQSSNQFSLVSRCLKSNSLKKHFFIIGESGVEFC", "values": [{"measurement": "Kd", "setting": "RAD51 [9]", "value": 57, "unit": "nM"}]}, {"molecule": "RAD51C-XRCC3 heterodimer (complex) chain 1: MRGKTFRFEMQRDLVSFPLSPAVRVKLVSAGFQTAEELLEVKPSELSKEVGISKAEALETLQIIRRECLTNKPRYAGTSESHKKCTALELLEQEHTQGFIITFCSALDDILGGGVPLMKTTEICGAPGVGKTQLCMQLAVDVQIPECFGGVAGEAVFIDTEGSFMVDRVVDLATACIQHLQLIAEKHKGEEHRKALEDFTLDNILSHIYYFRCRDYTELLAQVYLLPDFLSEHSKVRLVIVDGIAFPFRHDLDDLSLRTRLLNGLAQQMISLANNHRLAVILTNQMTTKIDRNQALLVPALGESWGHAATIRLIFHWDRKQRLATLYKSPSQKECTVLFQIKPQGFRDTVVTSACSLQTEGSLSTRKRSRDPEEEL chain 2: MDLDLLDLNPRIIAAIKKAKLKSVKEVLHFSGPDLKRLTNLSSPEVWHLLRTASLHLRGSSILTALQLHQQKERFPTQHQRLSLGCPVLDALLRGGLPLDGITELAGRSSAGKTQLALQLCLAVQFPRQHGGLEAGAVYICTEDAFPHKRLQQLMAQQPRLRTDVPGELLQKLRFGSQIFIEHVADVDTLLECVNKKVPVLLSRGMARLVVIDSVAAPFRCEFDSQASAPRARHLQSLGATLRELSSAFQSPVLCINQVTEAMEEQGAAHGPLGFWDERVSPALGITWANQLLVRLLADRLREEEAALGCPARTLRVLSAPHLPPSSCSYTISAEGVRGTPGTQSH", "values": [{"measurement": "Kd", "setting": "RAD51 [10]", "value": 93, "unit": "nM"}]}]}
